Test [1] concerns HCT-15. Put plainly: In vitro tumor cell proliferation, HCT-15. To be noted: read-out: In vitro Tumor Cell Proliferation (IC50, μM) Colon HCT-15. The class given is cell-based, human. The protocol:
(§1) The proliferation of tumor cells was measured using a sulforhodamine B assay as described in Skehan, P., et al., J. Natl. Cancer Inst. […] Tumor cells were harvested with trypsin-EDTA, cells that excluded trypan blue were counted, added to 96-well plates and incubated overnight at 37° C. Drug was added to the wells following dilution in culture medium. Three days later, the medium was removed and replenished with medium containing fresh drug and incubated an additional 4 days. The cells were then fixed with 0.1 ml 10% trichloroacetic acid for 60 min at 4° C. The plates were rinsed five times with tap water, air-dried and stained for 30 min with 0.4% sulforhodamine B in 1% acetic acid and air-dried.
(§2) Alternatively, the CyQUANT cell proliferation assay was used to quantitate cell proliferation.
(§3) Alternatively, the CyQUANT cell proliferation assay was used to quantify tumor cell proliferation. Tumor cells were harvested with trypsin-EDTA, cells that excluded trypan blue were counted, added to 96-well plates and incubated overnight at 37° C. Drug was added to the wells following dilution in culture medium. Three days later the medium was removed and the plates frozen at −80° C. for at least 30 minutes.

The subject of test [2] is HT-29. Kind of test: In vitro tumor cell proliferation, HT-29. In kind it is cell-based, human. The conditions noted are these: many values given with an undefined *, read-out: In vitro Tumor Cell Proliferation (IC50, μM) Colon HT-29. Put shortly:
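Growth was quantified either with CyQUANT, plates frozen at −80° C after 3 days of drug, or by sulforhodamine B staining of TCA-fixed cells after 3 days of drug plus 4 days with fresh drug. Trypan blue-excluding HT-29 cells were plated overnight at 37° C before dosing.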

For test [3], the target named is T1, cdk2/cyclin E (Homo sapiens, UniProt P24941).
T1 construct: made in house; host or cells: insect cells (baculovirus co-infection)
Put plainly: Cyclin-Dependent Kinase 2 Assay (cdk2/cyclin E, GST-Rb substrate). The class given is biochemical. To be noted: recombinant cdk2/cyclin E, 10 μM ATP, 30 min at 30° C., several values in a cell = separate determinations, read-out: CDK-2 Inhibition IC50. Here is the method: Substrate: GST-Rb as described above for cdk4/cyclin D1
Assay conditions for cdk2/cyclin E were identical to those for cdk4/cyclin D1 including the substrate. The concentration of recombinant cdk2/cyclin E in the assay was 0.1 μg per 100 μl assay. Incubation was for 30 min at 30° C.

The target in test [4] is T2, cdk4/cyclin D1 (Homo sapiens, UniProt P11802).
T2 construct: made in house; host or cells: Sf9 insect cells (Bac-to-Bac baculovirus, pFastBac)
T2 sequence (P11802 whole entry): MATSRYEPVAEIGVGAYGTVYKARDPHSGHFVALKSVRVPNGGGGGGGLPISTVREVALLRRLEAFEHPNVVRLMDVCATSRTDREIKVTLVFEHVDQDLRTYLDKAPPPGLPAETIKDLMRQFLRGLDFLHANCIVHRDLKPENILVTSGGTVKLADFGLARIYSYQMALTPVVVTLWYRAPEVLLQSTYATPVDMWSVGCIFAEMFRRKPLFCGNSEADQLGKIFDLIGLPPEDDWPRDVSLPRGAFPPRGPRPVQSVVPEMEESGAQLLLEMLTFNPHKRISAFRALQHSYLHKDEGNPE
T2 sequence (P24385 whole entry partner): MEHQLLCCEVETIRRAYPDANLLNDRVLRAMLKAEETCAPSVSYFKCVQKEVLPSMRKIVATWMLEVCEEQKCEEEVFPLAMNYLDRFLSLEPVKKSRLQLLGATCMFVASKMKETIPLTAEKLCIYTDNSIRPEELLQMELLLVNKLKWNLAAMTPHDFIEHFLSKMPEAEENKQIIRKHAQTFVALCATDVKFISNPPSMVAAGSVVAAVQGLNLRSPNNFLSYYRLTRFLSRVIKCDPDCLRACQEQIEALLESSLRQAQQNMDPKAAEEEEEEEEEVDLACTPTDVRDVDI
Kind of test: Cyclin-dependent Kinase 4 Assay (cdk4/cyclin D1, GST-Rb substrate). In kind it is biochemical. To be noted: cdk4/cyclin D1 insect cell lysate, 10 μM ATP, 30 min at 37° C., several values = separate determinations, read-out: CDK4 Inhibition IC50. Put shortly: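 IC50 against cdk4 measured by scintillation counting of bead-bound GST-Rb (0.5 μg) after filtration and four TNEN washes. Reaction was 30 min at 37 °C in HEPES pH 7.5 buffer with 10 mM MgCl2 and 1 mM EGTA. Enzyme source was 0.1 μg Sf9 lysate coinfected with cdk4 and cyclin D1.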

Test [5] concerns MCF-7. Kind of test: In vitro tumor cell proliferation, MCF-7. The conditions noted are these: sulforhodamine B or CyQUANT assay, read-out: In vitro Tumor Cell Proliferation (IC50, μM) Breast MCF-7. The class given is cell-based, human. The protocol: as §1, §2, §3
MCF7 is a human breast adenocarcinoma, hormone-dependent (HTB 22);

For test [6], the system named is A549. Put plainly: In vitro tumor cell proliferation, A549. The class given is cell-based, human. The conditions noted are these: many values given with an undefined *, read-out: In vitro Tumor Cell Proliferation (IC50, μM) Lung A549. In a few lines: (§4)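 Cells seeded overnight at 37° C, then exposed to drug diluted in medium; at 3 days medium and drug replenished for another 4 days. Growth read by sulforhodamine B staining after TCA fixation; alternatively by CyQUANT, with plates frozen at −80° C after 3 days of drug.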

In test [7] the test system is PC-3. Put plainly: In vitro tumor cell proliferation, PC-3. The class given is cell-based, human. The conditions noted are these: many values given with an undefined *, read-out: In vitro Tumor Cell Proliferation (IC50, μM) Prostate PC-3. In a few lines:
as §4

For test [8], the system named is DMS-114. Put plainly: In vitro tumor cell proliferation, DMS-114. In kind it is cell-based, human. The conditions noted are these: many values given with an undefined *, read-out: In vitro Tumor Cell Proliferation (IC50, μM) Lung DMS-114. In a few lines: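 Human small cell lung carcinoma DMS-114 cells plated overnight, then drug-treated for 3 days, medium and drug renewed, and incubated 4 more days. Growth read by sulforhodamine B staining after TCA fixation; alternatively by CyQUANT after 3 days' drug exposure and freezing at −80 °C.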

The subject of test [9] is MDA-MB-231. Put plainly: In vitro tumor cell proliferation, MDA-MB-231. The class given is cell-based, human. To be noted: sulforhodamine B or CyQUANT assay, many values given with an undefined *, read-out: In vitro Tumor Cell Proliferation (IC50, μM) Breast MDA-MB-231. In a few lines: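 Proliferation quantified by SRB staining of TCA-fixed cells after 3 days of drug plus 4 days with replenished drug, following overnight attachment at 37 °C.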

Test [10] deals with DU145. Put plainly: In vitro tumor cell proliferation, DU145. The class given is cell-based, human. To be noted: many values given with an undefined *, read-out: In vitro Tumor Cell Proliferation (IC50, μM) Prostate DU145. In a few lines: as §4
[11] abbreviates: Homo sapiens, MDA-MB-231, MDA-MB-231.

SMILES strings stand for the structures. Where “and” joins values, the source holds several entries; their conditions need not be identical. Identical values can stand only once. Counter-ions that a name gives are not always drawn. Like-named read-outs stand apart in the source and are kept apart here.

`N[C@H]1CC[C@H](Nc2nc(NCc3cccc(I)c3)c3ncn(C4C=CCC4)c3n2)CC1` (relative stereo) [Example 35, 2-[Trans-(4-aminocyclohexyl)amino]-6-[(3-iodobenzyl)amino]-9-(2-cyclopentenyl)purine hydrochloride]: the IC50 is 4 µM in test [1] (HCT-15, hydrochloride); 5.7 µM in test [1] (Homo sapiens, HCT-15, HCT-15); 1.9 µM in test [2] (HT-29, hydrochloride); 2.1 µM in test [2] (Homo sapiens, HT-29, HT-29); 490 nM and 140 nM in test [3]; 9400 nM and 7700 nM in test [4]. Further, the IC50 in test [5] (Homo sapiens, MCF7, MCF-7) is 2.9 µM; in test [5] (MCF-7, hydrochloride) it was 1.9 µM.
Regarding `COc1cc(CNc2nc(N[C@H]3CC[C@H](N)CC3)nc3c2ncn3C2CCCC2)cc(OC)c1` [Example 28, 2-[Trans-(4-aminocyclohexyl)amino]-6-[(3 5-dimethoxybenzyl)amino]-9-cyclopentylpurine dihydrochloride], the IC50 in test [6] (Homo sapiens, A549, A549) was 1.9 µM; in test [7] (Homo sapiens, PC-3, PC-3) it was 4.8 µM; in test [7] (PC-3, dihydrochloride) it was 6.4 µM; in [1] (Homo sapiens, HCT-15, HCT-15), greater than 20 µM; in [2] (Homo sapiens, HT-29, HT-29), 12 µM; in test [8] (DMS-114, dihydrochloride), 7.7 µM. The IC50 is 6.1 µM in test [8] (Homo sapiens, DMS-114, DMS-114); 12 µM in test [9] (setting [11]); 480 nM in [3]; 2200 nM and 2600 nM in test [4]; 9.1 µM in test [10] (DU145, dihydrochloride); 6.4 µM in [10] (Homo sapiens, DU-145, DU145). Besides, the IC50 in test [5] (Homo sapiens, MCF7, MCF-7) was 5.6 µM; in test [5] (MCF-7, dihydrochloride), 11 µM.
As for `COc1ccc(CNc2nc(N[C@H]3CC[C@H](N)CC3)nc3c2ncn3C2CCCC2)cc1OC` [Example 34, 2-[Trans-(4-aminocyclohexyl)amino]-6-[3,4-dimethoxybenzyl)amino]-9-cyclopentylpurine dihydrochloride], the IC50 in test [6] (A549, dihydrochloride) was found to be 4.8 µM; in test [6] (Homo sapiens, A549, A549), 3.4 µM; in [7] (Homo sapiens, PC-3, PC-3), 1 µM; in [7] (PC-3, dihydrochloride) it was 2 µM; in test [1] (Homo sapiens, HCT-15, HCT-15), 7.7 µM; in test [2] (HT-29, dihydrochloride) it was 6 µM. The IC50 in test [2] (Homo sapiens, HT-29, HT-29) was found to be 3.4 µM; in [8] (DMS-114, dihydrochloride), 4.5 µM; in [8] (Homo sapiens, DMS-114, DMS-114), 4.2 µM; in [9] (setting [11]), 3.4 µM; in test [9] (MDA-MB-231, dihydrochloride) it was 5.8 µM; in test [3] it was 80 nM. Besides, the IC50 in test [4] is 1200 nM and 800 nM; in test [10] (DU145, dihydrochloride), 4.3 µM; in test [10] (Homo sapiens, DU-145, DU145), 2.7 µM; in test [5] (Homo sapiens, MCF7, MCF-7) it was 2.3 µM; in [5] (MCF-7, dihydrochloride) it was 3.5 µM.
Turning to `COc1ccccc1CNc1nc(N[C@H]2CC[C@H](N)CC2)nc2c1ncn2C1CCCC1` [Example 12, 2-[Trans-(4-aminocyclohexyl)amino]-6-[(2-methoxybenzyl)amino]-9-cyclopentylpurine dihydrochloride], the IC50 in [6] (A549, dihydrochloride) stood at 3.5 µM; in test [6] (Homo sapiens, A549, A549), 5.6 µM; in [7] (Homo sapiens, PC-3, PC-3) it was 4.4 µM; in test [7] (PC-3, dihydrochloride) it was 3.5 µM; in test [1] (Homo sapiens, HCT-15, HCT-15) it was 16 µM; in [2] (HT-29, dihydrochloride) it was 8.5 µM. The IC50 in [2] (Homo sapiens, HT-29, HT-29) is 7.3 µM; in [8] (Homo sapiens, DMS-114, DMS-114), 5.4 µM; in test [9] (setting [11]), 8.6 µM; in [9] (MDA-MB-231, dihydrochloride), 11 µM; in test [3] it was 230 nM; in test [4], 4500 nM and 6200 nM. The IC50 was determined as 6.7 µM in test [10] (DU145, dihydrochloride) and 3.5 µM in test [10] (Homo sapiens, DU-145, DU145).
As for `COc1ccc(CNc2nc(N[C@H]3CC[C@H](N)CC3)nc3c2ncn3C2CCCC2)cc1` [Example 8, 2-[Trans-(4-aminocyclohexyl)amino]-6-[(4-methoxybenzyl)amino]-9-cyclopentylpurine dihydrochloride], the IC50 in test [6] (A549, dihydrochloride) turned out to be 1.1 µM; in [6] (Homo sapiens, A549, A549), 0.8 µM; in test [7] (Homo sapiens, PC-3, PC-3), 0.98 µM; in [7] (PC-3, dihydrochloride), 0.63 µM; in test [1] (HCT-15, dihydrochloride), 3.5 µM; in [1] (Homo sapiens, HCT-15, HCT-15), 4.5 µM. In addition, the IC50 in test [2] (HT-29, dihydrochloride) turned out to be 1.4 µM; in test [2] (Homo sapiens, HT-29, HT-29) it was 1.3 µM; in test [8] (DMS-114, dihydrochloride), 0.89 µM; in test [8] (Homo sapiens, DMS-114, DMS-114) it was 0.8 µM; in test [9] (setting [11]) it was 0.88 µM; in test [9] (MDA-MB-231, dihydrochloride), 1.2 µM. For the same compound, the IC50 in test [3] was 30 nM (2×) and 48 nM and 22 nM; in test [4], 6600 nM and 3200 nM; in [10] (DU145, dihydrochloride) it was 1.2 µM; in [10] (Homo sapiens, DU-145, DU145) it was 0.88 µM.
Take `COc1cccc(CNc2nc(N[C@H]3CC[C@H](N)CC3)nc3c2ncn3C2CCCC2)c1OC` [Example 13, 2-[Trans-(4-aminocyclohexyl)amino]-6-[(2,3-dimethoxybenzyl)amino]-9-cyclopentylpurine dihydrochloride]: the IC50 amounted to 1.7 µM in test [6] (Homo sapiens, A549, A549); 1.9 µM in test [7] (Homo sapiens, PC-3, PC-3); 1.3 µM in test [7] (PC-3, dihydrochloride); 3.4 µM in [2] (HT-29, dihydrochloride); 3.1 µM in test [2] (Homo sapiens, HT-29, HT-29); 1.4 µM in [8] (DMS-114, dihydrochloride). For the same compound, the IC50 in test [8] (Homo sapiens, DMS-114, DMS-114) worked out at 1 µM; in test [9] (setting [11]), 2.2 µM; in test [9] (MDA-MB-231, dihydrochloride), 2.6 µM; in [3] it was 50 nM; in [4] it was 2900 nM; in test [10] (DU145, dihydrochloride), 1.7 µM. Besides, the IC50 in test [10] (Homo sapiens, DU-145, DU145) came to 0.99 µM; in test [5] (Homo sapiens, MCF7, MCF-7) it was 2 µM.
Turning to `N[C@H]1CC[C@H](Nc2nc(NCc3ccccc3C(F)(F)F)c3ncn(C4CCCC4)c3n2)CC1` [Example 25, 2-[Trans-(4-aminocyclohexyl)amino]-6-[(2-trifluorobenzyl)amino]-9-cyclopentylpurine dihydrochloride], the IC50 was determined as 1.9 µM in [6] (Homo sapiens, A549, A549); 1.1 µM in test [7] (Homo sapiens, PC-3, PC-3); 1.7 µM in [7] (PC-3, dihydrochloride); 3.7 µM in test [1] (HCT-15, dihydrochloride); 4 µM in test [1] (Homo sapiens, HCT-15, HCT-15); 3 µM in [2] (HT-29, dihydrochloride). Also, the IC50 came out at 2.6 µM in test [2] (Homo sapiens, HT-29, HT-29); 0.95 µM in test [8] (DMS-114, dihydrochloride); 0.85 µM in test [8] (Homo sapiens, DMS-114, DMS-114); 4.5 µM in [9] (setting [11]); 4.3 µM in [9] (MDA-MB-231, dihydrochloride); 260 nM in test [3]. Moreover, the IC50 is 6400 nM and 6900 nM in test [4]; 1.7 µM in test [10] (DU145, dihydrochloride); 0.95 µM in test [10] (Homo sapiens, DU-145, DU145).

The record behind these values is patent US6479487B1, “6, 9-disubstituted 2-[trans-(4-aminocyclohexyl)amino] purines” (Aventis Pharmaceuticals Inc., priority 1998, dated 2002).
